Data published in publication PMC9151520 (Archives of Toxicology, 2022).
Where two headings read alike, the source gives them in different places.

Legend:
[1] = system: p53 signaling (p53RE-bla HCT-116 cells); assay: cells; type: cell-based
[2] = system: p53 signaling (p53RE-bla HCT-116 cells); assay: cells; type: cell-based; remark: listed apart in the source
[3] = system: p53 signaling (p53RE-bla HCT-116 cells); assay: cells; type: cell-based; settings: Homo sapiens; for EC50: HCT-116; for Emax: HCT-116, read-out: efficacy
[4] = system: p53 signaling (p53RE-bla HCT-116 cells)
[5] = system: p53 signaling (p53RE-bla HCT-116 cells); remark: listed apart in the source
[6] = rat
[7] = system: p53 signaling (p53RE-bla HCT-116 cells); assay: cells; settings: Homo sapiens
[8] = system: p53 signaling (p53RE-bla HCT-116 cells); assay: cells; settings: Homo sapiens; for EC50: HCT-116, read-out: p53 activation EC50, HLM
in vitro = settings: male, Sprague Dawley, rat, microsomes, pH 7.4
[9] = HCT-116, read-out: p53 activation EC50, cherry pick confirmation
[10] = HCT-116, read-out: p53 activation efficacy, cherry pick confirmation
[11] = HCT-116, read-out: p53 activation efficacy, primary screening
[12] = read-out: p53 activation EC50, RLM
[13] = HCT-116, read-out: p53 activation EC50, RLM

| SMILES | EC50 [2] | EC50 [3] [nM] | Emax [3] [%] | Depletion after 16 h of incubation with cells [6] [%] | EC50 ([7]; HCT-116) [nM] | Emax ([7]; HCT-116, read-out: efficacy) [%] | half-life (in vitro) [min] | p53 activation EC50, No MS [1] | p53 activation Efficacy, No MS [1] | EC50 ([2]; Homo sapiens, HCT-116, 0.5 h) [nM] | EC50 [4, 12] [nM] | p53 activation EC50, HLM [5] | Viability EC50, HLM (p53RE-bla HCT-116 cells) | Viability EC50, No MS (p53RE-bla HCT-116 cells) | Viability EC50, RLM (p53RE-bla HCT-116 cells) | Viability Efficacy, HLM (p53RE-bla HCT-116 cells) | Viability Efficacy, No MS (p53RE-bla HCT-116 cells) | Viability Efficacy, RLM (p53RE-bla HCT-116 cells) | EC50 [7, 13] [nM] | EC50 [8] [nM] | other results |
| --- | --- | --- | --- | --- | --- | --- | --- | --- | --- | --- | --- | --- | --- | --- | --- | --- | --- | --- | --- | --- | --- |
| CCOP(=S)(OCC)SCSC(C)(C)C [Terbufos] | Inactive | 1120 | 53.9 | 98.65 ± 1.08 | 2810 | 62.7 | 1.12 ± 0.2 | – | – | – | – | – | – | – | – | – | – | – | – | – | p53 activation EC50, cherry pick confirmation [1]: inactive; p53 activation EC50, primary screening [1]: inactive; p53 activation efficacy, cherry pick confirmation [1]: inactive; p53 activation efficacy, primary screening [1]: inactive; activity outcome in p53-bla assay [4]: induce p53 signaling; p53 activation EC50, cherry pick confirmation [5]: inactive; p53 activation efficacy, cherry pick confirmation [5]: inactive; Viability EC50, cherry pick confirmation (p53RE-bla HCT-116 cells): inactive; Viability EC50, primary screening (p53RE-bla HCT-116 cells): inactive; Viability efficacy, cherry pick confirmation (p53RE-bla HCT-116 cells): inactive; Viability efficacy, primary screening (p53RE-bla HCT-116 cells): inactive; EC50 [7, 9]: 1320 nM; Emax [7, 10]: 54.3%; Emax [7, 11]: 37.5%; Emax [8, 11]: 37.6% |
| COP(=S)(OC)Oc1ccc(S(=O)(=O)N(C)C)cc1 [Famphur] | – | 3100 | – | 87.7 ± 3.02 | 2460 | 73.6 | 10.8 ± 1.96 | inactive | inactive | 490 | 3100 | inactive | inactive | inactive | inactive | inactive | inactive | inactive | 3120 | 2020 | – |
| CCOP(=S)(OCC)Oc1ccc2c(C)c(Cl)c(=O)oc2c1 [Coumaphos] | Inactive | 7030 | 68.7 | 99.03 ± 0.34 | 5950 | – | 0.88 ± 0.12 | inactive | inactive | – | – | inactive | inactive | inactive | inactive | inactive | inactive | inactive | – | 891 | activity outcome in p53-bla assay [4]: induce p53 signaling |
| CCOC(=O)c1cn2nc(OP(=S)(OCC)OCC)cc2nc1C [Pyrazophos] | – | 790 | – | 88.65 ± 0.14 | 700 | 32.7 | 2.29 ± 0.71 | inactive | inactive | 41000 | 877 | inactive | inactive | inactive | inactive | inactive | inactive | inactive | 765 | 3670 | – |
| CCN(CC)C(=O)SCc1ccc(Cl)cc1 [Thiobencarb] | – | 1840 | – | 98.6 ± 0.04 | 5520 | 71.8 | 1.48 ± 0.54 | – | – | 1680 | – | – | – | – | – | – | – | – | – | – | p53 activation EC50 [1]: inactive; p53 activation efficacy [1]: inactive; p53 activation efficacy [4]: 51.3593; EC50 ([4]; read-out: p53 activation EC50): 1630 nM; p53 activation EC50 [5]: inactive; Viability EC50 (p53RE-bla HCT-116 cells): inactive; Viability efficacy (p53RE-bla HCT-116 cells): inactive |
| CCOP(=O)(OCC)OC(=CCl)c1ccc(Cl)cc1Cl [Chlorfenvinphos] | – | 2540 | – | 55.04 ± 4.69 | 6360 | 66.8 | 28.6 ± 1.85 | inactive | inactive | 20 | 2080 | inactive | inactive | inactive | inactive | inactive | inactive | inactive | 3800 | 3050 | – |
| CCOP(=S)(Oc1cnc(C(C)(C)C)nc1)OC(C)C (centres unmarked) [Tebupirimfos] | – | 1320 | – | 94.85 ± 0.13 | 1230 | 43.4 | 3.59 ± 0.08 | – | – | 2170 | – | – | – | – | – | – | – | – | – | – | p53 activation EC50 [1]: inactive; p53 activation efficacy [1]: inactive; p53 activation efficacy [4]: 42.005; EC50 ([4]; read-out: p53 activation EC50): 1630 nM; p53 activation EC50 [5]: inactive; Viability EC50 (p53RE-bla HCT-116 cells): inactive; Viability efficacy (p53RE-bla HCT-116 cells): inactive |
| CCOP(=S)(OCC)Oc1cc(-c2ccccc2)on1 [Isoxathion] | – | 9770 | – | 94.65 ± 0.45 | 8620 | 46 | 2.77 ± 0.25 | inactive | inactive | 27500 | – | inactive | inactive | inactive | inactive | inactive | inactive | inactive | – | 4450 | – |
| Cc1ccccc1OP(=O)(Oc1ccccc1C)Oc1ccccc1C [Tri-o-cresyl phosphate] | – | 3140 | – | 93.36 ± 0.84 | 5320 | 59.6 | 1.17 ± 0.08 | inactive | inactive | 15800 | – | inactive | inactive | inactive | inactive | inactive | inactive | inactive | – | 1120 | – |
| CCOP(=S)(NC(C)C)Oc1ccccc1C(=O)OC(C)C (centres unmarked) [Isofenphos] | Inactive | 810 | 54.3 | 88.45 ± 1.49 | 750 | 42.6 | 1.25 ± 0.47 | – | – | – | – | – | – | – | – | – | – | – | – | – | p53 activation EC50, cherry pick confirmation [1]: inactive; p53 activation EC50, primary screening [1]: inactive; p53 activation efficacy, cherry pick confirmation [1]: inactive; p53 activation efficacy, primary screening [1]: inactive; p53 activation EC50, cherry pick confirmation [5]: inactive; p53 activation efficacy, cherry pick confirmation [5]: inactive; Viability EC50, cherry pick confirmation (p53RE-bla HCT-116 cells): inactive; Viability EC50, primary screening (p53RE-bla HCT-116 cells): inactive; Viability efficacy, cherry pick confirmation (p53RE-bla HCT-116 cells): inactive; Viability efficacy, primary screening (p53RE-bla HCT-116 cells): inactive; EC50 [7, 9]: 777 nM; Emax [7, 10]: 42.6% |
